# Reference: patent publication US20220175667A1, “Extracellular Matrices, Uses Thereof, and Methods of Making Extracellular Matrices” (Johns Hopkins University, priority 2019, published 2022)
# Experiment: Reactivity of valsartan under EMR curing conditions
# Assay type: physicochemical
# Conditions: mixed with dextramate, PEGDA, Irgacure; cured for 10 minutes
# Procedure: Dextramate (24.2 mL of a 23.1 w/w % solution), PEGDA (16.3 mL of a 8.6 w/w % solution), Irgacure (14 mL of a 0.5 w/w % solution), and valsartan (2.82 mL or 1.41 mL of a 24.8 w/w % solution or 2.82 mL of a 1:10 dilution of a 24.8 w/w % solution) are mixed together. The mixture is cured for 10 minutes. After curing, 100 mL of dH2O is added to the cured product to create a swelled gel.
structure (smiles),measurement,value
CCCCC(=O)N(Cc1ccc(-c2ccccc2-c2nnn[nH]2)cc1)[C@H](C(=O)O)C(C)C [valsartan],reactivity under the curing conditions,does not exhibit reactivity
